# Measurements from PMC12655659, “Population Pharmacokinetics of Radotinib in Healthy Volunteers and Patients with Chronic Myeloid Leukemia” (Pharmaceuticals, 2025).
# Read-outs that look alike come from different tables or passages of the source.
# Legend:
# [1] = cited from earlier work
# [2] = tested on: patients newly diagnosed with Ph+ CML-CP; parameters: method as in PMID 28939746; conditions: by 12 months, cited from earlier work
# [3] = Population pharmacokinetic model (nonlinear mixed-effects modeling) of radotinib plasma concentrations in healthy volunteers and patients with CML-CP; format: in vivo, human; conditions: for half-life: human, plasma, oral, read-out: terminal half-life (t1/2), population estimate (converted)
# Procedure: Two clinical PK studies of radotinib were performed in healthy volunteers and patients with CML-CP. The two studies were approved by the institutional review board (IRB) of Severance Hospital and Peking University People’s Hospital (IRB numbers 4-2024-0489 and 2018PHA053, respectively) and were conducted in accordance with the Declaration of Helsinki and the International Council for Harmonization Good Clinical Practice (ICH-GCP) guidelines. All participants provided written informed consent prior to any study-related procedures. The studies were registered at ClinicalTrials.gov (identifiers: NCT06461078 and NCT03722420). The present population PK study was performed using pooled data from two clinical studies.
# The first study (NCT06461078) included healthy male adult volunteers aged 19 to 55 years, weighing 55 kg or heavier, with a body mass index (BMI) between 18.5 kg/m^2 and 27.0 kg/m^2. Individuals with a history of clinically significant psychiatric or comorbid conditions such as severe hepatic impairment, severe renal impartment, long QT syndrome; a history of gastrointestinal disorders or surgeries that may have affected the absorption of radotinib; or suspected symptoms of acute illness at the time of screening were excluded. Also excluded were individuals with concomitant medications or foods that may have interfered with the study outcomes as well as those with excessive consumption of caffeine, alcohol or tobacco. Individuals were also ineligible if they had participated in other clinical trials within 180 days, donated whole blood within 60 days or blood components within 30 days or received a blood transfusion within 30 days prior to the administration of radotinib. Study participants received a single oral dose of 400 mg radotinib under fasting conditions. Serial blood samples were collected from forearm veins of participants pre-dose and at 0.5, 1, 2, 3, 4, 5, 6, 8, 10, 12, 18, 24, 32 and 48 h post-dose.
# The second study (NCT03722420) included patients aged 18 years or older with a confirmed diagnosis of Ph+ CML-CP within last 6 months, typical BCR-ABL1 transcript type and normal organ function. Patients with a T315I mutation in the BCR-ABL1 gene; a history of radiotherapy, interferon or other targeted anti-leukemic therapies; or clinically significant comorbidities were excluded. Patients were also ineligible if they had participated in other investigational studies within the past 3 months or were taking therapeutic coumarin derivatives; a moderate or strong CYP3A4 inhibitor or inducer; or medications that may have prolonged the QT interval. Study participants were orally administered 300 mg radotinib twice daily under fasting conditions. Serial blood samples were obtained from forearm veins pre-dose and at 1, 2, 3, 4, 6, 8 and 12 h post-dose on Days 1 and 14.
# All samples were centrifuged to separate plasma and stored at −70 °C until the measurement of plasma concentrations (Cp) of radotinib. The Cp of radotinib in HVs was measured using high-performance liquid chromatography coupled with tandem mass spectrometric detection (HPLC-MS/MS; Prominence HPLC/UFLC/UFLCXR, Shimadzu, Kyoto, Japan; QTRAP 6500+, SCIEX, Marlborough, MA, USA). An internal standard was radotinib-d6 dissolved in acetonitrile to produce working solutions. The linearity of the bioanalytical method was assessed using a calibration curve computed by a weighted (1/x^2) linear regression from seven standard concentrations (5, 10, 30, 100, 300, 1000 and 2000 ng/mL). The method was validated using concentrations of 5, 15, 160 and 1600 ng/mL for the lower limit of quantitation (LLOQ) and low- (LQC), medium- (MQC) and high-quality controls (HQC), respectively.
# In patients with CML-CP, the Cp of radotinib was quantified using another HPLC–MS/MS system (LC-20ADXR pump, CTO-20AC column oven, CBM-20A Lite controller and DGU-20A5R degasser, Shimadzu, Kyoto, Japan; API 4000, SCIEX, MA, USA). Glipizide in acetonitrile was used as an internal standard. […]
# [4] = Preliminary pharmacokinetic assessment in patients with CML-CP; format: in vivo; conditions: human, plasma, oral, 300 mg twice daily, obtained by doubling the preliminary value of AUC0–12h, read-out: AUC0–24h, previously estimated
# [5] = tested on: patients with CML-CP; parameters: method as in PMID 24705186; conditions: 400 mg twice daily; 77 patients; at 12 months; cited from earlier work
# [6] = parameters: method as in ref 23 = [23]; 23. Lee Y. Kang M. Kim J. Han J. Kim N.Y. Shin J.S. Park M.S. Kim C.O. Jin B.H. Choi M.K. Clinical pharmacokinetic characteristics and the effect of food on radotinib in healthy volunteers Proceedings; conditions: healthy volunteers; cited from earlier work
# [7] = parameters: method as in ref 24 = [24]; 24. Kim J. Kang M. Lee Y. Yoo S. Han J. Cho D.J. Lee G.Y. Kim N.Y. Jiang Q. Lee J. Pharmacokinetic characteristics of radotinib assessed in Asian patients with chronic myeloid leukemia Proceedings of; conditions: patients with CML-CP, cited from earlier work
structure (smiles),measurement,setting,value
Cc1cn(-c2cc(NC(=O)c3ccc(C)c(Nc4nccc(-c5cccnc5)n4)c3)cc(C(F)(F)F)c2)cn1 [nilotinib],target Ctrough in terms of favorable molecular responses,[1]; 400 mg once daily,500 ng/mL
same,t1/2,[1],16 h
Cc1ccc(NC(=O)c2ccc(CN3CCN(C)CC3)cc2)cc1Nc1nccc(-c2cccnc2)n1 [imatinib],patients achieving major molecular response (MMR),"[2]; once-daily 400 mg, 20 of 66 patients",30%
Cc1cn(-c2cc(NC(=O)c3ccc(C)c(Nc4nccc(-c5cnccn5)n4)c3)cc(C(F)(F)F)c2)cn1 [radotinib],"CL/F, bootstrap estimate median (95% CI)",[3]; bootstrap of 1000 replicates,23.2 (20.0–26.5) L/h
same,"MTT, bootstrap estimate median (95% CI)",[3]; bootstrap of 1000 replicates,1.86 (1.43–2.27) h
same,"N, bootstrap estimate median (95% CI)",[3]; bootstrap of 1000 replicates,6.34 (4.46–10.6)
same,"Q/F, bootstrap estimate median (95% CI)",[3]; bootstrap of 1000 replicates,126 (88.9–185) L/h
same,"Vc/F age effect, bootstrap estimate median (95% CI)",[3]; bootstrap of 1000 replicates,−0.0127 (−0.0258–−0.003)
same,"Vc/F, bootstrap estimate median (95% CI)",[3]; bootstrap of 1000 replicates,395 (281–526) L
same,"Vp/F, bootstrap estimate median (95% CI)",[3]; bootstrap of 1000 replicates,529 (398–733) L
same,"ka, bootstrap estimate median (95% CI)",[3]; bootstrap of 1000 replicates,1.56 (1.07–3.14) h^−1
same,"σproportional, bootstrap estimate",[3]; bootstrap of 1000 replicates,20.0%
same,"ωCL/F, bootstrap estimate median (95% CI)",[3]; bootstrap of 1000 replicates,0.379 (0.301–0.459)
same,"ωIOV, bootstrap estimate median (95% CI)",[3]; bootstrap of 1000 replicates,0.669 (0.494–0.829)
same,CL/F slower in CML-CP patients compared with HVs,[3]; final population PK model,39.2%
same,"MTT (mean transit time), population estimate",[3]; final population PK model,1.88 h
same,"N (number of transit compartments), population estimate",[3]; final population PK model,6.58
same,estimated slope of negative linear effect of age on Vc/F,[3]; final population PK model,−0.0129 per year
same,"ka (first-order absorption rate constant), population estimate",[3]; final population PK model,1.59 h⁻¹
same,negative linear relationship of age with Vc/F,[3]; final population PK model,−0.0129 L per year
same,total V/F (summation of Vc/F and Vp/F),[3]; final population PK model,902 L
same,"σproportional (proportional residual error), population estimate",[3]; final population PK model,20.0%
same,"ωCL/F (interindividual variability of apparent clearance), population estimate",[3]; final population PK model,0.389
same,"CL/F, population estimate in healthy volunteers","[3]; final population PK model, HVs",37.9 L/h
same,"Vc/F age effect (slope), population estimate","[3]; final population PK model, linear, age − 31",−0.0129
same,"ωIOV (interoccasion variability), population estimate","[3]; final population PK model, on Vc/F and Vp/F",0.698
same,"CL/F (apparent clearance), population estimate","[3]; final population PK model, typical patient with CML-CP",23.0 L/h
same,"terminal half-life (t1/2), population estimate",[3]; healthy volunteers,18.2 h
same,half-life,"[3]; 300 mg, patients with CML-CP",28.8 h
same,half-life,"[3]; male, 400 mg, healthy volunteers",17.5 h
same,AUC(0-t),[4],24000 ng·h/mL
same,patients achieving major cytogenetic response (MCyR),[5],65%
same,patients attaining complete cytogenetic response (CCyR),[5],47%
same,patients achieving major molecular response (MMR),"[2]; 300 mg twice daily, 37 of 69 patients",54%
same,"V/F, preliminary value based on NCA",[6],1315 L
same,"t1/2, preliminary value",[6],17.5 h
same,"Cmax, preliminarily assessed value",[7]; 300 mg twice daily,1595 (1143–2393) ng/mL
same,"tmax, preliminarily assessed value",[7]; 300 mg twice daily,2.5 (2.0–3.8) h
same,"t1/2, preliminary value",[7],25.4 h
